Data taken from patent US20200385371A1 (Propellon Therapeutics Inc., priority 2017, published 2020).

Key:
MLL1-WRAD2 complex = target: T1, MLL1-WRAD2 complex (Homo sapiens, UniProt P61964); assay: MLL1-WRAD2 enzyme assay (HMT); type: biochemical; details: Table 2
T1 construct: His tag (N); made in house; host or cells: E. coli
Description: Specifically, recombinant human MLL1 (aa 3745-3969, GenBank Accession No. NM_005933), WDR5 (aa 22-334, GenBank Accession No. NM_017588), RbBP5 (aa 1-538, GenBank Accession No. NM_005057), Ash2L (aa 2-534, GenBank Accession No. NM_001105214), and DPY-30 (aa 1-99, GenBank Accession No. NM_0325742), all with N-terminal His tag, are expressed in E. coli and mixed at a molar ratio of 1:1:1:1:2. 10 nM of the assembled MLL1-WRAD2 complex is mixed with 100 nM WRAD2 to enhance complex formation before incubation with 0.05 mg/ml nucleosome substrate and compounds (as 10 point duplicate dose response titrations) for 15 min in a buffer consisting of 50 mM Tris (pH 8.5), 5 mM MgCl2, 50 mM NaCl, 1 mM DTT, 0.01% Brij-35, and 1% DMSO. Reaction is initiated with 1 μM 3H-SAM and incubated for 1 hour at 30° C. Reaction mixture is transferred to P81 filter-paper and washed with PBS before detection.

WDR5 = WDR5 (Homo sapiens, UniProt P61964); assay: Surface Plasmon Resonance (SPR) assay; type: binding; parameters: Full length WDR5 with an N-terminal His tag and C-terminal AviTag; His tag (N); made in house; host or cells: E. coli; details: Table 2, effect of difluoro substitution; read-out: KD (SPR)
In short: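 Full-length biotinylated WDR5 (N-His, C-AviTag, E. coli) captured (~3000 RU) on streptavidin SA chip; Biacore T200. HBS-EP pH 7.4 plus 5% DMSO running buffer, 40 μl/min.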

MV4-11 cells = assay: Cell proliferation assay (ATPlite); type: cell-based; details: Homo sapiens, MV4-11; Table 2
In short: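 ATPlite luminescence after five days' culture (37° C, 5% CO2) gives viability. Compounds dosed in 10 concentrations up to 10 μM against DMSO; 1,000 cells/well seeded in Alpha-MEM/10% FBS.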

| Compound | IC50 (MLL1-WRAD2 complex) | Kd (WDR5) | IC50 (MV4-11 cells) |
| --- | --- | --- | --- |
| C[C@@H]1CN(c2ccc(-c3cnc(N4CCOCC4)nc3)c(F)c2NC(=O)c2c[nH]c(=O)cc2C(F)(F)F)C[C@H](C)N1C [reference compound] | 154 nM | 1.1 nM |  |
| C[C@@H]1CN(c2cc(F)c(-c3cnc(N4CCOCC4)nc3)c(F)c2NC(=O)c2c[nH]c(=O)cc2C(F)(F)F)C[C@H](C)N1C [drawing 479, reference compound] | 63 nM | 3.7 nM | 30 nM |
| C[C@@H]1CN(c2ncc(-c3c(F)cc(N4C[C@@H](C)N(C)[C@@H](C)C4)c(NC(=O)c4c[nH]c(=O)cc4C(F)(F)F)c3F)cn2)C[C@H](C)O1 [drawing 478, reference compound] | 41 nM | 1.8 nM | 31 nM |
